Measured values published in publication PMC3894558, “Chemical signatures and new drug targets for gametocytocidal drug development” (Scientific Reports, 2014).
Where two headings read alike, the source gives them in different places.

System: P. falciparum 3D7 gametocytes
Test: alamarBlue gametocyte viability assay, strain 3D7
Format: cell-based, Plasmodium falciparum
Settings: for Max Resp: DMSO set at 0%, 100 nM epoxomicin set at -100%; call rule not given here
[1] = Malaria Box, stages III-V 3D7 gametocytes
[2] = Malaria Box, stages III-V 3D7 gametocytes, 11 concentrations, 1:3 dilution, read-out: IC50
[3] = Malaria Box, stages III-V 3D7 gametocytes, 11 concentrations, 1:3 dilution

| SMILES | Max Resp (Malaria Box) [%] | Curve Class [1] | IC50 [2] [µM] | IC50 (Plasmodium falciparum, 3D7, 3D7 gametocytes, stages III-V, high throughput viability assay, read-out: IC50 against gametocytes) [µM] | IC50 [3] | reduction of gametocyte viability (Malaria Box screen) [%] | IC50 (P. falciparum 3D7 gametocytes, mean of at least 3 independent experiments, read-out: Gametocyte IC50) [µM] |
| --- | --- | --- | --- | --- | --- | --- | --- |
| COc1cccc(C2(C)Nc3ccccc3-c3nc4ccccc4n32)c1 (stereo not drawn) [MMV396719] | -71 | -2.2 | 23.5 | – | – | – | – |
| COc1ccc(Nc2cc(C)nc(NCc3ccccc3)n2)cc1 [MMV006825] | -74 | -2.2 | 23.5 | – | – | – | – |
| CCC(=O)N1CCN(c2ccc(-n3c(=O)ccc4cnc5ccc(-c6ccc(N)nc6)cc5c43)cc2C(F)(F)F)CC1 [WWH030] | – | – | – | 0.009 | – | – | – |
| O=C1c2ccccc2C2=Nc3ccccc3SC(c3cccc(F)c3)C12 (stereo not drawn) [MMV006389] | 8 | 4 | – | – | Inactive | – | – |
| Nc1ccc(-c2nc3cc(Cc4ccc5[nH]c(-c6ccc(N)cc6)nc5c4)ccc3[nH]2)cc1 [MMV665943] | -69 | -2.2 | 29.6 | – | – | – | – |
| O=C(Nc1ccccc1O)c1ccc(-c2ccc(Cl)cc2Cl)o1 [MMV665948] | -52 | -1.4 | 5.9 | – | – | – | – |
| CC1CCN(Cc2ccc(NC(=O)c3cc4ccc5cccnc5c4[nH]3)cc2)CC1 [MMV020549] | -75 | -2.2 | 14.8 | – | – | – | – |
| CCOC(=O)c1cn(CC)c2cc(N3CCCCC3)c(F)cc2c1=O [MMV665827] | 7 | 4 | – | – | Inactive | – | – |
| CCOC(=O)c1c(C)n(-c2ccccc2)c2ccc(OC(=O)c3cc(OC)c(OC)c(OC)c3)cc12 [MMV396664] | -4 | 4 | – | – | Inactive | – | – |
| CN(C)c1ccc(C=Cc2nc(=O)c3ccccc3o2)cc1 [MMV006309] | 2 | 4 | – | – | Inactive | – | – |
| CC(=O)c1sc(NC(=O)Nc2ccc(C)cc2C)nc1C [MMV665894] | -23 | 4 | – | – | Inactive | – | – |
| COc1ccc(CN2CCN(Cc3ccccc3)CC2)c(O)c1 [MMV665944] | -96 | -2.1 | 6.62 | – | – | – | – |
| COc1ccc(C(=O)C2CC2c2ccc(Cl)cc2)cc1 (stereo not drawn) [MMV665924] | -23 | 4 | – | – | Inactive | – | – |
| O=C(NC1CCN(Cc2ccccc2)CC1)c1cc(-c2ccncc2)nc2ccc(Cl)cc12 [MMV020275] | -48 | -2.2 | – | – | Inactive | – | – |
| c1ccc(/C2=N/c3ccccc3/N=C(/c3ccccc3)c3ccccc32)cc1 [MMV007113] | -5 | 4 | – | – | Inactive | – | – |
| O=C(Nc1ccc(-c2nc3ccccc3[nH]2)cc1)c1ccc(Cl)c(Cl)c1 [MMV665840] | -16 | 4 | – | – | Inactive | – | – |
| COc1ccc(C=C2SC(=N)N(c3ccccc3OC)C2=O)cc1 [MMV666691] | -7 | 4 | – | – | Inactive | – | – |
| Cc1cc(C)cc(Nc2cc(C)nc3nc(C(F)(F)F)nn23)c1 [MMV011259] | 4 | 4 | – | – | Inactive | – | – |
| Cc1ccc(-c2cc3c(nn2)-c2ccccc2C3=O)cc1 [MMV666021] | -4 | 4 | – | – | Inactive | – | – |
| CCc1ccc(Nc2cc(C)c3ccc(O)cc3n2)cc1.Cl [MMV000570] | -29 | -1.2 | 0.469 | – | – | – | – |

| SMILES | Max Resp (Malaria Box) [%] | Curve Class [1] | IC50 [2] [µM] | IC50 (Plasmodium falciparum, 3D7, 3D7 gametocytes, stages III-V, high throughput viability assay, read-out: IC50 against gametocytes) [µM] | IC50 [3] | reduction of gametocyte viability (Malaria Box screen) [%] | IC50 (P. falciparum 3D7 gametocytes, mean of at least 3 independent experiments, read-out: Gametocyte IC50) [µM] |
| --- | --- | --- | --- | --- | --- | --- | --- |
| O=C(Nc1ccc(N2CCN(Cc3ccccc3)CC2)cc1)c1cccs1.O=C(O)C(F)(F)F [MMV019670] | 13 | 4 | – | – | Inactive | – | – |
| Cl.Clc1cc(Br)ccc1-c1ccc(CNCC2CCNCC2)o1 [MMV019918] | -106 | -1.1 | 1.87 | – | – | – | – |
| COc1ccc(/C=C2/SC(=Nc3ccccc3)NC2=O)cc1 [MMV665836] | 13 | 4 | – | – | Inactive | – | – |
| CCOc1ccc(Nc2ccnc3cc(Cl)ccc23)cc1 [MMV007285] | -38 | -1.2 | 5.26 | – | – | – | – |
| CC1=C(CC(=O)c2cccc([N+](=O)[O-])c2)C(=O)c2ccccc2C1=O [MMV666125] | -116 | -1.1 | 0.833 | – | – | > 75 | < 1 |
| Cc1cc(N2CCCC2)nc(Nc2ccc(NC(=O)CCc3ccccc3)cc2)n1 [MMV396669] | -75 | -2.2 | 11.8 | – | – | – | – |
| CCOc1cc2c(cc1OCC)C(c1cc(C)c(O)c(C)c1)NCC2.Cl (stereo not drawn) [MMV000483] | -82 | -1.1 | 5.26 | – | – | – | – |
| Cc1ccc(OCCCCCCNCCO)c(C)c1 [MMV666020] | -64 | -2.2 | 37.2 | – | – | – | – |
| CSC1=NC(=Nc2c(C)cccc2C)C2(CCC(C(C)(C)C)CC2)N1c1ccc(Cl)cc1 (stereo not drawn) [MMV666596] | 14 | 4 | – | – | Inactive | – | – |
| COc1cccc(-c2nn(C)c3sc(C(=O)NCCN4CCN(c5ccccc5F)CC4)cc23)c1 [MMV019064] | -42 | -2.2 | – | – | Inactive | – | – |
| C=CC12CCN(CC1)C(C(O)c1ccnc3ccc(OC)cc13)C2.Cl (stereo not drawn) [MMV665782] | -31 | -1.2 | 0.209 | – | – | – | – |
| CN(C)c1ccc(-c2nc3ccc(N)cc3[nH]2)cc1 [MMV666102] | -75 | -2.2 | 29.6 | – | – | – | – |
| CCN1CCN(Cc2ccc(NC(=O)c3cc4ccc5cccnc5c4[nH]3)cc2)CC1 [MMV020548] | -56 | -3 | – | – | Inactive | – | – |
| Cc1cc(NC(=O)c2ccc(-c3ccccc3)cc2)no1 [MMV018984] | 14 | 4 | – | – | Inactive | – | – |
| Cc1cc(C)c2c(c1)OCN(Cc1ccccc1Cl)C2 [MMV006558] | -44 | -1.2 | 0.935 | – | – | – | – |
| CCOC(=O)c1c[nH]c2ccc(CC)cc2c1=O [MMV007116] | 32 | 4 | – | – | Inactive | – | – |
| Cc1sc2ncnc(Sc3nc4ccccc4[nH]3)c2c1C [MMV019266] | -72 | -2.2 | 11.8 | – | – | – | – |
| N=c1n(CCN2CCCCC2)c2ccccc2n1CC(=O)c1ccc(Cl)c(Cl)c1 [MMV396723] | -92 | -2.1 | 14.8 | – | – | – | – |
| Cc1cccc(-n2ncc3c(O)nc(-n4nc(C)cc4NC(=O)c4cc5ccccc5o4)nc32)c1 [MMV403679] | -64 | -2.2 | 18.7 | – | – | – | – |
| CCOC(=O)c1ccc2[nH]c(-c3ccccc3)cc(=O)c2c1 [MMV006457] | 14 | 4 | – | – | Inactive | – | – |

| SMILES | Max Resp (Malaria Box) [%] | Curve Class [1] | IC50 [2] [µM] | IC50 (Plasmodium falciparum, 3D7, 3D7 gametocytes, stages III-V, high throughput viability assay, read-out: IC50 against gametocytes) [µM] | IC50 [3] | reduction of gametocyte viability (Malaria Box screen) [%] | IC50 (P. falciparum 3D7 gametocytes, mean of at least 3 independent experiments, read-out: Gametocyte IC50) [µM] |
| --- | --- | --- | --- | --- | --- | --- | --- |
| CCCCCn1c(=N)n(CC(O)COc2cccc(C)c2)c2ccccc21.Cl (stereo not drawn) [MMV000444] | -107 | -1.1 | 8.33 | – | – | – | – |
| O=C(CCl)NCCOc1ccc(Cl)cc1Cl [MMV665927] | -88 | -2.1 | 16.6 | – | – | – | – |
| Cc1cc(C)c2nc(N3CCC(C(=O)NCCCN4CCC(N5CCCCC5)CC4)CC3)sc2c1 [MMV019780] | -106 | -1.1 | 4.18 | – | – | – | – |
| CNCCCNc1ccnc2cc(Cl)ccc12 [MMV020500] | -63 | -1.2 | 0.235 | – | – | – | – |
| O=c1nc(C=Cc2ccc(Br)cc2)oc2ccccc12 [MMV666599] | 4 | 4 | – | – | Inactive | – | – |
| Cc1ccc2cc3c(N)c4c(C)ccc(C)c4nc3nc2c1 [MMV666079] | -81 | -2.1 | 16.6 | – | – | – | – |
| Cc1ccc(C(=O)c2oc3ccc4c(C)cc(=O)oc4c3c2C)cc1 [MMV086103] | 0 | 4 | – | – | Inactive | – | – |
| Oc1c(CN2CCN(c3ccccc3F)CC2)cc(Br)c2cccnc12 [MMV000760] | -91 | -1.1 | 3.72 | – | – | – | – |
| CCN1CCN(c2cc(C)c3cc(NC(=O)c4ccc(OC)c(OC)c4)ccc3n2)CC1 [MMV019074] | -32 | -2.2 | – | – | Inactive | – | – |
| COc1ccccc1NC1=C(N2CCCCC2)C(=O)c2ccccc2C1=O [MMV085203] | -97 | -2.1 | 7.43 | – | – | – | – |
| COc1ccc2c(c1)OC(O)(C(F)(F)C(F)(F)F)CC2=O (stereo not drawn) [MMV007839] | -23 | 4 | – | – | Inactive | – | – |
| CC(O)(c1ccc(Cl)cc1)C(CN1CCCCC1)c1ccccc1.Cl (stereo not drawn) [MMV000620] | -78 | -2.2 | 9.35 | – | – | – | – |
| O=C(Nc1cccc(-c2nc3ccccc3[nH]2)c1)c1cccc(NC(=O)c2ccco2)c1 [MMV665883] | -25 | 4 | – | – | Inactive | – | – |
| O=C(NC1CCCC1)c1ccc(N2CCC(NCc3cccc(C(F)(F)F)c3)CC2)cc1 [MMV666070] | -47 | -2.2 | – | – | Inactive | – | – |
| CCOc1ccc(C2N(C)c3ccccc3N2C)cc1 [MMV075490] | -38 | -2.2 | – | – | Inactive | – | – |
| Oc1ccc2ccccc2c1CNc1nc2ccccc2[nH]1 [MMV011832] | -67 | -2.2 | 29.6 | – | – | – | – |
| COc1cccc(C=Cc2nc(=O)c3ccccc3o2)c1OC [MMV666693] | 19 | 4 | – | – | Inactive | – | – |
| CCOC(=O)c1c(C)n(-c2ccc(Cl)cc2)c2ccc(OC(=O)C=Cc3ccccc3)cc12 [MMV666600] | 2 | 4 | – | – | Inactive | – | – |
